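Grown in 96-well plates, cells were treated for 48 hours with each compound at five concentrations. Insufficient inhibition: endpoint recorded as highest concentration tested. TGI is the concentration that stops growth completely.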
Assays:
Assay in all cases: growth of human tumour cells (NCI), 48 h
LOX IMVI melanoma = system: LOX IMVI melanoma
NCI-H23 lung = system: NCI-H23 lung
SNB-19 CNS = system: SNB-19 CNS
OVCAR-4 ovarian = system: OVCAR-4 ovarian
SR leukemia = system: SR leukemia
OVCAR-8 ovarian = system: OVCAR-8 ovarian
MDA-MB-435 = system: MDA-MB-435
RPMI-8226 leukemia = system: RPMI-8226 leukemia
MCF7 breast = system: MCF7 breast
MOLT-4 leukemia = system: MOLT-4 leukemia
UACC-62 melanoma = system: UACC-62 melanoma
RXF 393 renal = system: RXF 393 renal
TK-10 renal = system: TK-10 renal
HOP-92 NSCLC = system: HOP-92 NSCLC
HOP-62 NSCLC = system: HOP-62 NSCLC
U251 CNS = system: U251 CNS
EKVX NSCLC = system: EKVX NSCLC
HS 578T breast = system: HS 578T breast
IGROV1 ovarian = system: IGROV1 ovarian
T-47D breast = system: T-47D breast
DU-145 prostate = system: DU-145 prostate
A498 renal = system: A498 renal
SF-295 CNS = system: SF-295 CNS
MALME-3M melanoma = system: MALME-3M melanoma
M14 melanoma = system: M14 melanoma
SN12C renal = system: SN12C renal
UO-31 renal = system: UO-31 renal
SK-OV-3 ovarian = system: SK-OV-3 ovarian
K-562 leukemia = system: K-562 leukemia
NCI-H226 lung = system: NCI-H226 lung
HCC-2998 colon = system: HCC-2998 colon
HT29 colon = system: HT29 colon
HCT-15 colon = system: HCT-15 colon
CAKI-1 renal = system: CAKI-1 renal
SK-MEL-5 melanoma = system: SK-MEL-5 melanoma
HL-60(TB) leukemia = system: HL-60(TB) leukemia
UACC-257 melanoma = system: UACC-257 melanoma
NCI/ADR-RES ovarian = system: NCI/ADR-RES ovarian
OVCAR-5 ovarian = system: OVCAR-5 ovarian
OVCAR-3 ovarian = system: OVCAR-3 ovarian
SNB-75 CNS = system: SNB-75 CNS
ACHN renal = system: ACHN renal
SK-MEL-2 melanoma = system: SK-MEL-2 melanoma
A549 NSCLC = system: A549 NSCLC
MDA-N = system: MDA-N
BT-549 breast = system: BT-549 breast
SK-MEL-28 melanoma = system: SK-MEL-28 melanoma
SF-539 CNS = system: SF-539 CNS
786-0 renal = system: 786-0 renal
SF-268 CNS = system: SF-268 CNS
NCI-H460 lung = system: NCI-H460 lung
HCT-116 colon = system: HCT-116 colon
PC-3 prostate = system: PC-3 prostate
COLO 205 colon = system: COLO 205 colon
KM12 colon = system: KM12 colon
SW-620 colon = system: SW-620 colon
NCI-H522 lung = system: NCI-H522 lung
MDA-MB-231 breast = system: MDA-MB-231 breast
CCRF-CEM leukemia = system: CCRF-CEM leukemia

`O=C(O)c1ccccc1.[Ag]` showed a TGI (LOX IMVI melanoma) of over 66.6 µM, a TGI (NCI-H23 lung) of 54.5 µM and a TGI (SNB-19 CNS) of over 100 µM. It also gave a TGI (OVCAR-4 ovarian) of 29.9 µM, a TGI (SR leukemia) of over 100 µM and a TGI (OVCAR-8 ovarian) of over 72.7 µM. It also gave a TGI (MDA-MB-435) of 31.7 µM, a TGI (RPMI-8226 leukemia) of over 23.5 µM and a TGI (MCF7 breast) of 36.5 µM. The TGI (MOLT-4 leukemia) was over 21.7 µM, the TGI (UACC-62 melanoma) was 32.3 µM and the TGI (RXF 393 renal) was 35.9 µM. It also gave a TGI (TK-10 renal) of 19.6 µM, a TGI (HOP-92 NSCLC) of 41.3 µM and a TGI (HOP-62 NSCLC) of 46.3 µM. It also gave a TGI (U251 CNS) of 35.4 µM, a TGI (EKVX NSCLC) of 55.4 µM and a TGI (HS 578T breast) of over 71.9 µM. It also gave a TGI (IGROV1 ovarian) of 30.6 µM, a TGI (T-47D breast) of 5.28 µM and a TGI (DU-145 prostate) of 32.1 µM. For the same compound, the TGI (A498 renal) was 36.8 µM, the TGI (SF-295 CNS) was over 100 µM and the TGI (MALME-3M melanoma) was 3.25 µM. The TGI (M14 melanoma) was 36 µM, the TGI (SN12C renal) was 51 µM and the TGI (UO-31 renal) was 7.17 µM. For the same compound, the TGI (SK-OV-3 ovarian) was 31.2 µM, the TGI (K-562 leukemia) was over 26.4 µM and the TGI (NCI-H226 lung) was over 100 µM. For the same compound, the TGI (HCC-2998 colon) was 37 µM, the TGI (HT29 colon) was 43.7 µM and the TGI (HCT-15 colon) was 49.5 µM. The TGI (CAKI-1 renal) was 9.89 µM, the TGI (SK-MEL-5 melanoma) was 19.5 µM and the TGI (HL-60(TB) leukemia) was over 42 µM. It also gave a TGI (UACC-257 melanoma) of 10.2 µM, a TGI (NCI/ADR-RES ovarian) of over 100 µM and a TGI (OVCAR-5 ovarian) of 45.1 µM. For the same compound, the TGI (OVCAR-3 ovarian) was 28.5 µM, the TGI (SNB-75 CNS) was 11.3 µM and the TGI (ACHN renal) was 19.1 µM. The TGI (SK-MEL-2 melanoma) was 30.2 µM, the TGI (A549 NSCLC) was over 58.7 µM and the TGI (MDA-N) was 19.2 µM. For the same compound, the TGI (BT-549 breast) was 64.9 µM, the TGI (SK-MEL-28 melanoma) was 32.4 µM and the TGI (SF-539 CNS) was 45.4 µM. For the same compound, the TGI (786-0 renal) was 32.7 µM, the TGI (SF-268 CNS) was 50.1 µM and the TGI (NCI-H460 lung) was 30.1 µM. The TGI (HCT-116 colon) was 46.3 µM, the TGI (PC-3 prostate) was 29.8 µM and the TGI (COLO 205 colon) was 4.12 µM. For the same compound, the TGI (KM12 colon) was 47.3 µM.
With `O=S(=O)(c1ccc(Br)cc1)n1c2ccc(Br)cc2c2nc3ccccc3nc21` the TGI (LOX IMVI melanoma) was over 100 µM, the TGI (NCI-H23 lung) was over 100 µM and the TGI (SNB-19 CNS) was over 100 µM. It also gave a TGI (OVCAR-4 ovarian) of over 100 µM, a TGI (OVCAR-8 ovarian) of over 100 µM and a TGI (MDA-MB-435) of over 100 µM. It also gave a TGI (RPMI-8226 leukemia) of over 100 µM, a TGI (MOLT-4 leukemia) of over 100 µM and a TGI (UACC-62 melanoma) of over 100 µM. The TGI (RXF 393 renal) was 53 µM, the TGI (TK-10 renal) was over 100 µM and the TGI (HOP-92 NSCLC) was over 100 µM. It also gave a TGI (HOP-62 NSCLC) of over 100 µM, a TGI (U251 CNS) of 90.3 µM and a TGI (EKVX NSCLC) of over 100 µM. It also gave a TGI (HS 578T breast) of over 100 µM, a TGI (IGROV1 ovarian) of over 100 µM and a TGI (T-47D breast) of over 100 µM. It also gave a TGI (DU-145 prostate) of over 100 µM, a TGI (SW-620 colon) of over 100 µM and a TGI (A498 renal) of over 100 µM. The TGI (SF-295 CNS) was over 100 µM, the TGI (MALME-3M melanoma) was over 100 µM and the TGI (M14 melanoma) was over 100 µM. The TGI (SN12C renal) was over 100 µM, the TGI (UO-31 renal) was over 100 µM and the TGI (SK-OV-3 ovarian) was over 100 µM. For the same compound, the TGI (K-562 leukemia) was over 100 µM, the TGI (NCI-H226 lung) was over 100 µM and the TGI (HCC-2998 colon) was over 100 µM. For the same compound, the TGI (HT29 colon) was over 100 µM, the TGI (HCT-15 colon) was over 100 µM and the TGI (CAKI-1 renal) was over 100 µM. It also gave a TGI (SK-MEL-5 melanoma) of over 100 µM, a TGI (NCI-H522 lung) of over 100 µM and a TGI (UACC-257 melanoma) of over 100 µM. For the same compound, the TGI (MDA-MB-231 breast) was over 100 µM, the TGI (NCI/ADR-RES ovarian) was over 100 µM and the TGI (OVCAR-5 ovarian) was over 100 µM. The TGI (OVCAR-3 ovarian) was over 100 µM, the TGI (SNB-75 CNS) was 82.6 µM and the TGI (ACHN renal) was over 100 µM. The TGI (SK-MEL-2 melanoma) was over 100 µM, the TGI (A549 NSCLC) was over 100 µM and the TGI (MDA-N) was over 100 µM. It also gave a TGI (BT-549 breast) of over 100 µM, a TGI (SK-MEL-28 melanoma) of over 100 µM and a TGI (786-0 renal) of over 100 µM. The TGI (SF-268 CNS) was over 100 µM, the TGI (NCI-H460 lung) was over 100 µM and the TGI (HCT-116 colon) was over 100 µM. It also gave a TGI (PC-3 prostate) of over 100 µM, a TGI (CCRF-CEM leukemia) of over 100 µM and a TGI (COLO 205 colon) of over 100 µM. It also gave a TGI (KM12 colon) of over 100 µM.

— PubChem BioAssay (NCI)
